The values below are quoted from earlier work in US20220047530A1, “USE OF HORDENINE IN PREPARING DRUG FOR TREATING HYPOPHYSOMA” (Wuhan Third Hospital, priority 2019, published 2022).

The data set deals with pituitary prolactinoma. The conditions noted are these: patients; cited from earlier work.

Structures are written as SMILES.

For the molecule `CC(C)C[C@H]1C(=O)N2CCC[C@H]2[C@]2(O)O[C@](NC(=O)[C@@H]3C=C4c5cccc6[nH]c(Br)c(c56)C[C@H]4N(C)C3)(C(C)C)C(=O)N12` [bromocriptine], the side effects entry is reported as “mainly gastrointestinal reactions”.
